# Test results from patent publication US7351742B2, “Sulfonamide derivatives for the treatment of diseases” (Pfizer Inc., priority 2004, dated 2008).
# Biological target: T1, human β2 adrenergic receptor (Homo sapiens, UniProt P07550)
# T1 construct: expressed in transfected cells; host or cells: CHO (Chinese Hamster Ovary) cells, CHOhβ2
# Assay: β2 cAMP EC50 in CHO cells recombinantly expressing the human β2 adrenergic receptor (cAMP-Flashplate)
# Assay type: cell-based
# Details: CHOhβ2 cells, 1 hour incubation
# Description: According to another alternative, the agonist potency for the β2 receptor of the compounds of the formula (1) may also be determined by the measure of the concentration of compound according to the present invention required to produce half maximal effect (EC50) for the β2 receptor.
# 10 mM/100% DMSO (dimethylsulfoxide) stock of compound is diluted to required top dose in 4% DMSO. This top dose is used to construct a 10-point semi-log dilution curve, all in 4% DMSO. Isoprenaline (Sigma, 1-5627) was used as a standard in every experiment and for control wells on each plate. Data was expressed as % Isoprenaline response.
# CHO (Chinese Hamster Ovary) cells recombinantly expressing the human β2 adrenergic receptor (from Kobilka et al., PNAS 84: 46-50, 1987 and Bouvier et al., Mol Pharmacol 33: 133-139 1988 CHOhβ2) were grown in Dulbeccos MEM/NUT MIX F12 (Gibco, 21331-020) supplemented with 10% foetal bovine serum (Sigma, F4135, Lot 90K8404 Exp 09/04), 2 mM glutamine (Sigma, G7513), 500 μg/ml geneticin (Sigma, G7034) and 10 μg/ml puromycin (Sigma, P8833). Cells were seeded to give about 90% confluency for testing.
# 25 μl/well each dose of compound was transferred into a cAMP-Flashplate® (NEN, SMP004B), with […] as basal controls and 100 nM Isoprenaline as max controls. This was diluted 1:2 by the addition of 25 μl/well PBS. Cells were trypsinised (0.25% Sigma, T4049), washed with PBS (Gibco, 14040-174) and resuspended in stimulation buffer (NEN, SMP004B) to give 1×10^6 cells/ml CHOhB2. Compounds were incubated with 50 μl/well cells for 1 hour. Cells were then lysed by the addition of 100 μl/well detection buffer (NEN, SMP004B) containing 0.18 μCi/ml ^125I-cAMP (NEN, NEX-130) and plates were incubated at room temperature for a further 2 hours. The amount of ^125I-cAMP bound to the Flashplate® was quantified using a Topcount NXT (Packard), normal counting efficiency for 1 minute. Dose-response data was expressed as % Isoprenaline activity and fitted using a four parameter sigmoid fit.
# T1 sequence (P07550 whole entry): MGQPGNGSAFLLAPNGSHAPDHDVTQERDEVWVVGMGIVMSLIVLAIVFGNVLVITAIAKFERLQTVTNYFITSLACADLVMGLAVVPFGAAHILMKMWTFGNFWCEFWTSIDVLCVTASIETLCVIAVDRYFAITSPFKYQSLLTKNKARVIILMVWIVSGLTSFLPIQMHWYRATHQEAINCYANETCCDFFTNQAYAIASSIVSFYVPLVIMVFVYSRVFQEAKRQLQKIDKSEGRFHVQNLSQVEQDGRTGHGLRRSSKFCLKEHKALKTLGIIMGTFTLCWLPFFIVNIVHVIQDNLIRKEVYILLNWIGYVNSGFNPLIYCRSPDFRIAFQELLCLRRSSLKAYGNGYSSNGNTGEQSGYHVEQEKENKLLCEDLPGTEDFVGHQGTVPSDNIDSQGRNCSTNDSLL
row,EC50 [nM],Structure (SMILES)
1,0.02,"CC(C)(Cc1cccc(CC(=O)NCc2ccccc2)c1)NC[C@H](O)c1ccc(O)c(NS(C)(=O)=O)c1 [Example 1, N-Benzyl-2-(3-{2-[((2R)-2-hydroxy-2-{4-hydroxy-3-[(methylsulfonyl)amino]phenyl}ethyl)amino]-2-methylpropyl}phenyl)acetamide]"
2,0.03,"COc1ccc(CNC(=O)Cc2cccc(CC(C)(C)NC[C@H](O)c3ccc(O)c(NS(C)(=O)=O)c3)c2)cc1 [Example 2, 2-(3-{2-[((2R)-2-hydroxy-2-{4-hydroxy-3-[(methylsulfonyl)amino]phenyl}ethyl)amino]-2-methylpropyl}phenyl)-N-(4-methoxybenzyl)acetamide]"
3,0.07,"Cc1ccc(CNC(=O)Cc2cccc(CC(C)(C)NC[C@H](O)c3ccc(O)c(NS(C)(=O)=O)c3)c2)cc1 [Example 6, 2-(3-{2-[((2R)-2-hydroxy-2-{4-hydroxy-3-[(methylsulfonyl)amino]phenyl}ethyl)amino]-2-methylpropyl}phenyl)-N-(4-methylbenzyl)acetamide]"
4,0.05,"CC(C)(Cc1cccc(CC(=O)NCc2ccc(Cl)cc2)c1)NC[C@H](O)c1ccc(O)c(NS(C)(=O)=O)c1 [Example 12, N-(4-Chlorobenzyl)-2-(3-{2-[((2R)-2-hydroxy-2-{4-hydroxy-3-[(methylsulfonyl)amino]phenyl}ethyl)amino]-2-methylpropyl}phenyl)acetamide]"
5,0.03,"CC(C)(Cc1cccc(CC(=O)NCc2ccc(F)cc2)c1)NC[C@H](O)c1ccc(O)c(NS(C)(=O)=O)c1 [Example 15, N-(4-Fluorobenzyl)-2-(3-{2-[((2R)-2-hydroxy-2-{4-hydroxy-3-[(methylsulfonyl)amino]phenyl}ethyl)amino]-2-methylpropyl}phenyl)acetamide]"
6,0.08,"CC(C)(Cc1cccc(CC(=O)NCc2ccc(Cl)c(Cl)c2)c1)NC[C@H](O)c1ccc(O)c(NS(C)(=O)=O)c1 [Example 17, N-(3,4-Dichlorobenzyl)-2-(3-{2-[((2R)-2-hydroxy-2-{4-hydroxy-3-[(methylsulfonyl)amino]phenyl}ethyl)amino]-2-methylpropyl}phenyl)acetamide]"
7,0.08,"CC(C)(Cc1cccc(CC(=O)NCCc2ccccc2)c1)NC[C@H](O)c1ccc(O)c(NS(C)(=O)=O)c1 [Example 25, 2-(3-{2-[((2R)-2-Hydroxy-2-{4-hydroxy-3-[(methylsulfonyl)amino]phenyl}ethyl)amino]-2-methylpropyl}phenyl)-N-(2-phenylethyl)acetamide]"
8,0.09,"CC(C)(Cc1cccc(CC(=O)NCCCc2ccccc2)c1)NC[C@H](O)c1ccc(O)c(NS(C)(=O)=O)c1 [Example 26, 2-(3-{2-[((2R)-2-Hydroxy-2-{4-hydroxy-3-[(methylsulfonyl)amino]phenyl}ethyl)amino]-2-methylpropyl}phenyl)-N-(3-phenylpropyl)acetamide]"
9,0.04,"CSc1ccccc1CNC(=O)Cc1cccc(CC(C)(C)NC[C@H](O)c2ccc(O)c(NS(C)(=O)=O)c2)c1 [Example 31, 2-(3-{2-[((2R)-2-Hydroxy-2-{4-hydroxy-3-[(methylsulfonyl)amino]phenyl}ethyl)amino]-2-methylpropyl}phenyl)-N-[2-(methylthio)benzyl]acetamide]"
10,0.06,"Cc1ccc(CNC(=O)Cc2cccc(C[C@@H](C)NC[C@H](O)c3ccc(O)c(NS(C)(=O)=O)c3)c2)cc1C [Example 38, N-(3,4-Dimethylbenzyl)-2-(3-{(2R)-2-[((2R)-2-hydroxy-2-{4-hydroxy-3-[(methylsulfonyl)amino]phenyl}ethyl)amino]propyl}phenyl)acetamide]"
11,0.05,"C[C@H](Cc1cccc(CC(=O)NCc2ccc(Cl)c(Cl)c2)c1)NC[C@H](O)c1ccc(O)c(NS(C)(=O)=O)c1 [Example 39, N-(3,4-Dichlorobenzyl)-2-(3-{(2R)-2-[((2R)-2-hydroxy-2-{4-hydroxy-3-[(methylsulfonyl)amino]phenyl}ethyl)amino]propyl}phenyl)acetamide]"
12,0.06,"C[C@H](Cc1cccc(CC(=O)NCc2ccc(C(F)(F)F)cc2)c1)NC[C@H](O)c1ccc(O)c(NS(C)(=O)=O)c1 [Example 45, 2-(3-{(2R)-2-[((2R)-2-Hydroxy-2-{4-hydroxy-3-[(methylsulfonyl)amino]phenyl}ethyl)amino]propyl}phenyl)-N-[4-(trifluoromethyl)benzyl]acetamide]"
13,0.02,"C[C@H](Cc1cccc(CC(=O)NCc2ccccn2)c1)NC[C@H](O)c1ccc(O)c(NS(C)(=O)=O)c1 [Example 60, 2-(3-{(2R)-2-[((2R)-2-Hydroxy-2-{4-hydroxy-3-[(methylsulfonyl)amino]phenyl}ethyl)amino]propyl}phenyl)-N-(pyridin-2-ylmethyl)acetamide]"
14,0.08,"CC(C)(Cc1ccc(CC(=O)NCc2cc(C(F)(F)F)ccc2Cl)cc1)NC[C@H](O)c1ccc(O)c(NS(C)(=O)=O)c1 [Example 67, N-[2-Chloro-5-(trifluoromethyl)benzyl]-2-(4-{2-[((2R)-2-hydroxy-2-{4-hydroxy-3-[(methylsulfonyl)amino]phenyl}ethyl)amino]-2-methylpropyl}phenyl)acetamide]"
15,0.02,"C[C@H](Cc1ccc(CC(=O)NCc2ccccc2)cc1)NC[C@H](O)c1ccc(O)c(NS(C)(=O)=O)c1 [Example 76, N-Benzyl-2-(4-{(2R)-2-[((2R)-2-hydroxy-2-{4-hydroxy-3-[(methylsulfonyl)amino]phenyl}ethyl)amino]propyl}phenyl)acetamide]"
